From patent publication US20220152117A1, “METHODS OF PROMOTING CELLULAR MATURATION WITH AMPK ACTIVATORS” (UNIVERSITY OF WASHINGTON, priority 2019, published 2022)
Several values for one entry are separate records, joined by “and”; a condition that tells them apart may be missing. Equal values may be shown once. Entries after “also recorded” stand apart in the source; their conditions may differ.

Tests used:
Assay type in all cases: cell-based, human
hPSC-CMs [1] = assay: Immunocytochemistry, imaging and morphological analysis (cell size, circularity index)
Method: Cells were fixed in 4% paraformaldehyde for 10 min followed by PBS wash. The fixed cells were blocked with 1.5% normal goat serum for 1 hour at room temperature and incubated overnight at 4° C. with primary antibodies. Mouse anti-α-actinin (Sigma) was used. The samples were rinsed with PBS and incubated with a secondary antibody. Samples subjected to F-actin staining were incubated with TRITC-labeled phalloidin (Sigma) for 5 min at room temperature. Nuclei were stained with Hoechst 33342. Fluorescent images were acquired using a Zeiss AxioCam™ mounted on a Zeiss AxioObserver Microscope™, and confocal images were processed and quantified using NIS Elements. Each cell was analyzed for cell size and circularity index.

hPSC-CMs [2] = assay: Mitochondrial oxidation of palmitate, Seahorse XF96 extracellular flux palmitate-albumin assay; settings: 1 mM AICAR for 2 weeks
Method: The Seahorse XF96 extracellular flux Analyzer™ was used to assess the fatty acid oxidation capacity of the hPSC-CMs. XF96 plates were pre-treated with fibronectin at a concentration of 1 μg/cm^2. At around 20 days after induction of differentiation, the cardiomyocytes were seeded onto the XF96 plates at a density of 30,000 cells per well (2,500/mm^2). The cells were treated with 1 mM AICAR for two weeks before the palmitate-albumin assay. An hour prior to performing this assay, culture medium was exchanged for basal media (unbuffered DMEM, Sigma D5030, supplemented with 2 mM glutamine, 1 mM pyruvate, 25 mM glucose, and 400 μM carnitine). Palmitate-albumin complexes were made following the Seahorse Bioscience protocol. Substrates were injected during the measurements to achieve two spike concentrations of palmitate-albumin at 200 μM each. The oxygen consumption rates (OCR values) were further normalized to the number of cells present in each well, quantified by staining with Hoechst 33342 (Sigma-Aldrich) as measured using fluorescence at 355 nm excitation and 460 nm emission. The highest OCR values induced by palmitate-albumin were used for statistics. Due to variations in the absolute magnitude of OCR measurements in different experiments, the relative AICAR treated/untreated control levels were used to compare and summarize independent biological replicates (N=7).

hiPS-HLCs = assay: RT-PCR of hepatic and mitochondrial-related genes in hepatocyte-like cells
Method: Undifferentiated human IMR90-induced pluripotent stem cells, originally derived from lung fibroblasts^22 (James A. Thomson, University of Wisconsin-Madison), were expanded using mouse embryonic fibroblast-conditioned medium supplemented with 5 ng/ml basic fibroblast growth factor. Cardiomyocytes were obtained using a previously described protocol^2 that involves the serial application of activin A and bone morphogenetic protein-4 (BMP4) under serum-free, monolayer culture conditions. The cultures were also supplemented with the Wnt agonist CHIR99021 in the early stages of differentiation followed by the Wnt antagonist Xav939. In this study, cardiomyocytes derived from human undifferentiated IMR90-induced stem cells were used, and for brevity, these are referred to human induced pluripotent stem cell-derived cardiomyocytes (hiPSC-CM). After 20 days of in vitro differentiation, the cells were dispersed using 0.05% trypsin-EDTA and re-plated. Cultures were fed every other day thereafter with serum-free RPMI-B27 plus insulin. Only cell preparations containing >80% cardiac troponin T-positive cardiomyocytes (by flow cytometry) were used for the current investigation. Twenty days after induction, cells were re-plated at different densities based on experimental purposes (described below). Cells were treated with 1 mM AICAR for two weeks (unless otherwise mentioned specifically), with media being changed every other day. This study was mainly performed with cardiomyocytes-derived from IMR90 iPS cell line. However, cardiomyocytes-derived from another iPS cell line, WTC11 iPS cells^22, and a human embryonic stem cell line (hESC), RUES2 cells, were also used for some of the experiments. Rues and WTC undifferentiated cells were cultured with mTeSR medium. Similar differentiation protocols as to IMR90 were used to obtain cardiomyocytes from Rues and WTC cells. Only cell preparations containing >80% cardiac troponin T-positive cardiomyocytes (by flow cytometry) were used for the current investigation. Undifferentiated iPSCs were maintained on StemAdhere™ (Primorigin Biosciences®) with mTesR medium supplemented with bFGF. The formation of hepatocyte-like cells from iPSCs was achieved as described previously^24,25. Briefly, cells were induced to form endoderm by addition of 100 ng/ml Activin A, 10 ng/ml BMP4, and 20 ng/ml FGF2 for two days followed by 100 ng/ml Activin A for an additional three days. Hepatic progenitor cells were formed by supplementing the medium with 20 ng/ml BMP4 and 10 ng/ml FGF2. Next, 20 ng/ml HGF was added between days 10 and 15 and induced maturation of the hepatocytes by culturing the cells in HCM medium (Lonza®) containing 20 ng/ml Oncostatin M until day 20. In some experiments, the differentiation medium was supplemented with 1.0 mM AICAR between days 15 and 20. hiPSC-derived neurons were generated following previously published protocols^26, 27, 28. Briefly, hiPSCs from a control individual^28 and from a patient with the duplication of the amyloid precursor protein (APP) gene^27 were cultured on mouse embryonic fibroblasts in the presence of 20 ng/ml bFGF (Peprotech®). Neural stem cells were generated by hiPSC co-culture on the mouse stromal cell line PA6 in the presence of 0.5 ug/ml Noggin (Peprotech®) and 10 uM SB431542 (Peprotech®). After 12 days, neural rosettes were dissociated and FACS sorted for the cell surface markers CD184/CD24^+; CD44/CD271^−. Neural stem cells were propagated in 20 ng/ml bFGF and neuronal differentiation was induced by the withdrawal of bFGF and the addition of 20 ng/ml BDNF (Peprotech®), 20 ng/ml GDNF (Peprotech®), […] dbCAMP (Peprotech®).
Total RNA was isolated using the Qiagen RNeasy Kit™, and mRNA was reverse transcribed using the Superscript™ III first strand cDNA synthesis kit (Invitrogen®). All primers were purchased from Real Time Primers, and qRT-PCR was performed using SYBR™ green chemistry and an ABI 7900HT instrument or TAQMAN™ with BIORad CXF384™. […]

[3] = HLCs treated at day 20 with 1 mM AICAR for additional seven days

NC(=O)c1ncn([C@@H]2O[C@H](CO)[C@@H](O)[C@H]2O)c1N [AICAR, 5-amino-4-imidazolecarboxamide riboside-1-β-D-ribofuranoside]
circularity index (hPSC-CMs [1]; AICAR-treated hPSC-CMs, control 0.51±0.01): 0.40±0.02 | cell area (hPSC-CMs [1]; AICAR-treated hiPSC-CMs, control 1141±40): 2321±120 μm^2 | increase in oxygen consumption rate (OCR) upon palmitate-albumin introduction (hPSC-CMs [2]): 2.32±0.12 fold and ~2.3 fold | HNF4α expression, treatment day 15 to 17 (hiPS-HLCs; 1 mM AICAR day 15 to 17): significantly down-regulated | other mature hepatic-related genes (SLC10A1, APOH, ASGR, APOB, and PXR) (hiPS-HLCs; 1 mM AICAR day 15 to 17): no significant difference | AFP expression, treatment day 15 to 17 (hiPS-HLCs; 1 mM AICAR day 15 to 17, endpoint day 20): diminished; also recorded: significantly reduced | ALB expression, treatment day 15 to 17 (hiPS-HLCs; 1 mM AICAR day 15 to 17, endpoint day 20, b310 calls the change non-significant): enhanced | ALB expression, longer treatment (hiPS-HLCs; 1 mM AICAR, longer treatment between days 15 and 20, endpoint day 20): adversely affected | PDK4 expression in HLCs (hiPS-HLCs; [3]): significantly increased | PGC1α, ERRa, PPARα, TFAM and HNF4α expression in HLCs (hiPS-HLCs; [3]): no significant effect
